Measurements as given in ChEMBL document CHEMBL3885861, “Open TG-GATES”.

Species: Rattus norvegicus
Test: Open TG-GATES - Regimen: Single
Format: toxicity, organism-based, Sprague-Dawley
Set-up: regimen Single, gender Male, age 6 weeks
Conditions: in vivo, po, 8 mg/kg, route gavage, dose level Low; for APTT / Bas / Eos / Fbg / Hb / Ht / Lym / MCH / MCHC / MCV / Mono / Neu / PT / Plat / RBC / Ret / WBC: tissue Blood; for KIDNEY_L / KIDNEY_R / KIDNEY_TOTAL: tissue Kidney; for LIVER: tissue Liver; for A/G / ALP / ALT / AST / BUN / CRE / Ca / Cl / DBIL / GLC / IP / K / LDH / Na / PL / RALB / TBIL / TC / TG / TP / gamma-GTP: tissue Plasma

NC1=NC(=O)C(c2ccccc2)O1 (configuration not stated) [PEMOLINE]
TERMINAL_BW (3 h): 210.1 g
APTT (3 h): 15.6 s
Bas (3 h): 0%
Eos (3 h): 0.6%
Fbg (3 h): 289.6 mg/dL
Hb (3 h): 13.2 g/dL
Ht (3 h): 38.9%
Lym (3 h): 79.4%
MCH (3 h): 21.9 pg
MCHC (3 h): 34.1%
MCV (3 h): 64.2 fL
Mono (3 h): 3.2%
Neu (3 h): 16.2%
PT (3 h): 13.2 s
Plat (3 h): 112.1 x10_4/uL
RBC (3 h): 605.6 x10_4/ul
Ret (3 h): 9.3%
WBC (3 h): 89 x10_2/uL
KIDNEY_L (3 h): 0.9 g
KIDNEY_R (3 h): 0.9 g
KIDNEY_TOTAL (3 h): 1.8 g
LIVER (3 h): 9 g
A/G (3 h): 1
ALP (3 h): 1585.2 IU/L
ALT (3 h): 44 IU/L
AST (3 h): 83 IU/L
BUN (3 h): 8.2 mg/dL
CRE (3 h): 0.2 mg/dL
Ca (3 h): 10.7 mg/dL
Cl (3 h): 106.2 meq/L
DBIL (3 h): 0.014 mg/dL
GLC (3 h): 174.2 mg/dL
IP (3 h): 7.9 mg/dL
K (3 h): 4.1 meq/L
LDH (3 h): 68.8 IU/L
Na (3 h): 139.6 meq/L
PL (3 h): 126.6 mg/dL
RALB (3 h): 2.7 g/dL
TBIL (3 h): 0.042 mg/dL
TC (3 h): 77 mg/dL
TG (3 h): 45.8 mg/dL
TP (3 h): 5.3 g/dL
gamma-GTP (3 h): 1.4 IU/L
TERMINAL_BW (6 h): 211.2 g
APTT (6 h): 15.8 s
Bas (6 h): 0%
Eos (6 h): 1%
Fbg (6 h): 309 mg/dL
Hb (6 h): 13.5 g/dL
Ht (6 h): 39.8%
Lym (6 h): 75.6%
MCH (6 h): 21.9 pg
MCHC (6 h): 33.9%
MCV (6 h): 64.6 fL
Mono (6 h): 3.4%
Neu (6 h): 19.6%
PT (6 h): 13.1 s
Plat (6 h): 112.7 x10_4/uL
RBC (6 h): 616.4 x10_4/ul
Ret (6 h): 8.9%
WBC (6 h): 81.1 x10_2/uL
KIDNEY_L (6 h): 0.9 g
KIDNEY_R (6 h): 0.9 g
KIDNEY_TOTAL (6 h): 1.8 g
LIVER (6 h): 8.7 g
A/G (6 h): 1
ALP (6 h): 1539 IU/L
ALT (6 h): 44 IU/L
AST (6 h): 80 IU/L
BUN (6 h): 8 mg/dL
CRE (6 h): 0.2 mg/dL
Ca (6 h): 10.7 mg/dL
Cl (6 h): 104.8 meq/L
DBIL (6 h): 0.014 mg/dL
GLC (6 h): 186.2 mg/dL
IP (6 h): 9.9 mg/dL
K (6 h): 3.9 meq/L
LDH (6 h): 56.8 IU/L
Na (6 h): 140.6 meq/L
PL (6 h): 127 mg/dL
RALB (6 h): 2.8 g/dL
TBIL (6 h): 0.042 mg/dL
TC (6 h): 78.4 mg/dL
TG (6 h): 37.4 mg/dL
TP (6 h): 5.5 g/dL
gamma-GTP (6 h): 1.4 IU/L
TERMINAL_BW (9 h): 209.7 g
APTT (9 h): 15.9 s
Bas (9 h): 0%
Eos (9 h): 1%
Fbg (9 h): 319.2 mg/dL
Hb (9 h): 13.3 g/dL
Ht (9 h): 39.2%
Lym (9 h): 77.8%
MCH (9 h): 21.9 pg
MCHC (9 h): 34%
MCV (9 h): 64.2 fL
Mono (9 h): 2.8%
Neu (9 h): 18%
PT (9 h): 13.2 s
Plat (9 h): 117.5 x10_4/uL
RBC (9 h): 611 x10_4/ul
Ret (9 h): 9.2%
WBC (9 h): 91 x10_2/uL
KIDNEY_L (9 h): 0.9 g
KIDNEY_R (9 h): 0.9 g
KIDNEY_TOTAL (9 h): 1.8 g
LIVER (9 h): 7.7 g
A/G (9 h): 1
ALP (9 h): 1372.4 IU/L
ALT (9 h): 40.6 IU/L
AST (9 h): 74.2 IU/L
BUN (9 h): 8.2 mg/dL
CRE (9 h): 0.2 mg/dL
Ca (9 h): 10.4 mg/dL
Cl (9 h): 106 meq/L
DBIL (9 h): 0.012 mg/dL
GLC (9 h): 172.2 mg/dL
IP (9 h): 9.7 mg/dL
K (9 h): 3.9 meq/L
LDH (9 h): 57.4 IU/L
Na (9 h): 140.4 meq/L
PL (9 h): 122.4 mg/dL
RALB (9 h): 2.7 g/dL
TBIL (9 h): 0.044 mg/dL
TC (9 h): 78.4 mg/dL
TG (9 h): 28.4 mg/dL
TP (9 h): 5.3 g/dL
gamma-GTP (9 h): 1.4 IU/L
TERMINAL_BW (24 h): 216.4 g
APTT (24 h): 16.8 s
Bas (24 h): 0%
Eos (24 h): 0.8%
Fbg (24 h): 274.6 mg/dL
Hb (24 h): 13 g/dL
Ht (24 h): 38.4%
Lym (24 h): 77.8%
MCH (24 h): 22.1 pg
MCHC (24 h): 33.9%
MCV (24 h): 65.2 fL
Mono (24 h): 3.4%
Neu (24 h): 17.4%
PT (24 h): 12.9 s
Plat (24 h): 118.4 x10_4/uL
RBC (24 h): 590.2 x10_4/ul
Ret (24 h): 8.1%
WBC (24 h): 88.3 x10_2/uL
KIDNEY_L (24 h): 0.9 g
KIDNEY_R (24 h): 0.9 g
KIDNEY_TOTAL (24 h): 1.9 g
LIVER (24 h): 10 g
A/G (24 h): 1
ALP (24 h): 1622.2 IU/L
ALT (24 h): 43 IU/L
AST (24 h): 70.2 IU/L
BUN (24 h): 15.2 mg/dL
CRE (24 h): 0.2 mg/dL
Ca (24 h): 11 mg/dL
Cl (24 h): 105 meq/L
DBIL (24 h): 0.018 mg/dL
GLC (24 h): 177.8 mg/dL
IP (24 h): 8.2 mg/dL
K (24 h): 3.9 meq/L
LDH (24 h): 61.8 IU/L
Na (24 h): 142.2 meq/L
PL (24 h): 133.8 mg/dL
RALB (24 h): 2.8 g/dL
TBIL (24 h): 0.03 mg/dL
TC (24 h): 76 mg/dL
TG (24 h): 69.4 mg/dL
TP (24 h): 5.6 g/dL
gamma-GTP (24 h): 1 IU/L
